The subject of one assay is MV4;11 cells. In words: Cell viability assay (CellTiter-Glo) in MV4;11 cells, alone or with gilteritinib. In kind it is cell-based. The settings on record: Homo sapiens, MV4;11 cells, three days, CellTiter-Glo, read-out: MV4. On the technique in general: ATP-based viability assays read luminescence as a measure of living cells.
A further assay deals with MOLM-13 cells. In words: Cell viability assay (CellTiter-Glo) in MOLM-13 cells, alone or with gilteritinib. In kind it is cell-based. The note with it: Homo sapiens, MOLM-13 cells, three days, CellTiter-Glo.
Setting [1] is: MV4-11, 72 h, compound alone (without gilteritinib), 11 IC50.
[2] abbreviates: MV4-11, 72 h, with gilteritinib 10 nM, 11 IC50 gilteritinib.
Setting [3] is: MOLM-13, 72 h, compound alone (without gilteritinib), read-out: MOLM-13 IC50.
Where [4] appears, read: MOLM-13, 72 h, with gilteritinib 20 nM, read-out: MOLM-13 IC50 gilteritinib.
Where [5] appears, read: 72 h, compound alone (without gilteritinib), 11 IC50.
Where [6] appears, read: 72 h, with gilteritinib 10 nM, 11 IC50 gilteritinib.
[7] abbreviates: 72 h, compound alone (without gilteritinib), read-out: MOLM-13 IC50.
The mark [8] stands for this setting: 72 h, with gilteritinib 20 nM, read-out: MOLM-13 IC50 gilteritinib.

Consider 15 compounds from patent publication US20240050428A1 (Cullgen (Shanghai), Inc., priority 2020, published 2024).

Read-outs that look alike come from different tables or passages of the source.

Regarding `O=C(CC1CCCC(N2CCC(n3cc(-c4cnc5ccccc5n4)cn3)CC2)C1)NCc1ccc2c(c1)CN(C1CCC(=O)NC1=O)C2=O` (stereo not drawn) [GS-086, N-((2-(2,6-dioxopiperidin-3-yl)-1-oxoisoindolin-5-yl)methyl)-2-(3-(4-(4-(quinoxalin-2-yl)-1H-pyrazol-1-yl)piperidin-1-yl)cyclohexyl)acetamide], the IC50 in the assay on MV4;11 cells (setting [1]) was greater than 1000 nM; in the assay with MV4;11 cells (setting [2]), 100 to 1000 nM; in the assay on MOLM-13 cells (setting [3]), greater than 1000 nM; in the assay with MOLM-13 cells (setting [4]), greater than 1000 nM.

Turning to `O=C(CNc1cccc(N2CCC(n3cc(-c4cnc5ccccc5n4)cn3)CC2)c1)NCc1scc2c1CN(C1CCC(=O)NC1=O)C2=O` (stereo not drawn) [GS-087, N-((5-(2,6-dioxopiperidin-3-yl)-4-oxo-5,6-dihydro-4H-thieno[3,4-c]pyrrol-1-yl)methyl)-2-((3-(4-(4-(quinoxalin-2-yl)-1H-pyrazol-1-yl)piperidin-1-yl)phenyl)amino)acetamide], the IC50 in the assay with MV4;11 cells (setting [1]), in the assay on MV4;11 cells (setting [2]), in the assay with MOLM-13 cells (setting [3]) and with MOLM-13 cells (setting [4]) was less than 10 nM throughout.

Regarding `O=C1CCC(N2Cc3c(Nc4ccnc(NCCCN5CCC(n6cc(-c7cnc8ccccc8n7)cn6)CC5)n4)cccc3C2=O)C(=O)N1` (stereo not drawn) [GS-088, 3-(1-Oxo-4-((2-((3-(4-(4-(quinoxalin-2-yl)-1H-pyrazol-1-yl)piperidin-1-yl)propyl)amino)pyrimidin-4-yl)amino)isoindolin-2-yl)piperidine-2,6-dione], the IC50 with MV4;11 cells (setting [1]), in the assay on MV4;11 cells (setting [2]), in the assay on MOLM-13 cells (setting [3]) and in the assay with MOLM-13 cells (setting [4]) was greater than 1000 nM in each case.

For `O=C(CC1CCC(N2CCC(n3cc(-c4cnc5ccccc5n4)cn3)CC2)CC1)NCc1ccc2c(c1)CN(C1CCC(=O)NC1=O)C2=O` (stereo not drawn) [GS-089, N-((2-(2,6-dioxopiperidin-3-yl)-1-oxoisoindolin-5-yl)methyl)-2-(4-(4-(4-(quinoxalin-2-yl)-1H-pyrazol-1-yl)piperidin-1-yl)cyclohexyl)acetamide], the IC50 in the assay with MV4;11 cells (setting [1]), in the assay on MV4;11 cells (setting [2]), with MOLM-13 cells (setting [3]) and in the assay on MOLM-13 cells (setting [4]) was greater than 1000 nM each time.

On to `O=C1CCC(N2Cc3c(Nc4cccc(Nc5cccc(N6CCC(n7cc(-c8cnc9ccccc9n8)cn7)CC6)c5)n4)cccc3C2=O)C(=O)N1` (stereo not drawn) [GS-090, 3-(1-Oxo-4-((6-((3-(4-(4-(quinoxalin-2-yl)-1H-pyrazol-1-yl)piperidin-1-yl)phenyl)amino)pyridin-2-yl)amino)isoindolin-2-yl)piperidine-2,6-dione], for which the IC50 was 10 to 100 nM with MV4;11 cells (setting [1]), less than 10 nM in the assay on MV4;11 cells (setting [2]), 10 to 100 nM in the assay with MOLM-13 cells (setting [3]) and less than 10 nM in the assay with MOLM-13 cells (setting [4]).

As to `O=C1CCC(N2Cc3c(Nc4ccnc(NCC(=O)N5CCC(n6cc(-c7cnc8ccccc8n7)cn6)CC5)n4)cccc3C2=O)C(=O)N1` (stereo not drawn) [GS-091, 3-(1-Oxo-4-((2-((2-oxo-2-(4-(4-(quinoxalin-2-yl)-1H-pyrazol-1-yl)piperidin-1-yl)ethyl)amino)pyrimidin-4-yl)amino)isoindolin-2-yl)piperidine-2,6-dione], the IC50 in the assay with MV4;11 cells (setting [1]), in the assay on MV4;11 cells (setting [2]), in the assay with MOLM-13 cells (setting [3]) and in the assay with MOLM-13 cells (setting [4]) was greater than 1000 nM in each case.

Consider `O=C1CCC(N2Cc3c(Nc4ccnc(NC5CCC(N6CCC(n7cc(-c8cnc9ccccc9n8)cn7)CC6)C5)n4)cccc3C2=O)C(=O)N1` (stereo not drawn) [GS-092, 3-(1-Oxo-4-((2-((3-(4-(4-(quinoxalin-2-yl)-1H-pyrazol-1-yl)piperidin-1-yl)cyclopentyl)amino)pyrimidin-4-yl)amino)isoindolin-2-yl)piperidine-2,6-dione], for which the IC50 in the assay on MV4;11 cells (setting [1]), in the assay with MV4;11 cells (setting [2]), with MOLM-13 cells (setting [3]) and in the assay with MOLM-13 cells (setting [4]) was greater than 1000 nM throughout.

For `O=C1CCC(N2Cc3c(csc3CNC(=O)Nc3cccc(N4CCC(n5cc(-c6cnc7ccccc7n6)cn5)CC4)c3)C2=O)C(=O)N1` (stereo not drawn) [GS-093, 1-((5-(2,6-Dioxopiperidin-3-yl)-4-oxo-5,6-dihydro-4H-thieno[3,4-c]pyrrol-1-yl)methyl)-3-(3-(4-(4-(quinoxalin-2-yl)-1H-pyrazol-1-yl)piperidin-1-yl)phenyl)urea], the IC50 in the assay on MV4;11 cells (setting [1]), in the assay with MV4;11 cells (setting [2]), with MOLM-13 cells (setting [3]) and in the assay on MOLM-13 cells (setting [4]) was less than 10 nM in each case.

On to `O=C1CCC(N2Cc3c(Nc4ccnc(Nc5cccc(N6CCC(N7CCCCC7)CC6)c5)n4)cccc3C2=O)C(=O)N1` (stereo not drawn) [GS-094, 3-(4-((2-((3-([1,4′-Bipiperidin]-1′-yl)phenyl)amino)pyrimidin-4-yl)amino)-1-oxoisoindolin-2-yl)piperidine-2,6-dione], for which the IC50 in the assay on MV4;11 cells (setting [1]), in the assay on MV4;11 cells (setting [2]), with MOLM-13 cells (setting [3]) and in the assay on MOLM-13 cells (setting [4]) was greater than 1000 nM throughout.

As to `O=C1CCC(N2Cc3ccc(CCCCCC(=O)N4CCC(c5ccccc5)CC4)cc3C2=O)C(=O)N1` (stereo not drawn) [GS-095, 3-(1-Oxo-6-(6-oxo-6-(4-phenylpiperidin-1-yl)hexyl)isoindolin-2-yl)piperidine-2,6-dione], the IC50 lay in the range of 100 to 1000 nM in the assay with MV4;11 cells (setting [5]), 10 to 100 nM with MV4;11 cells (setting [6]), 100 to 1000 nM with MOLM-13 cells (setting [7]) and 10 to 100 nM in the assay with MOLM-13 cells (setting [8]).

As for `O=C1CCC(N2Cc3ccc(CCCCCCC(=O)N4CCN(c5ccccn5)CC4)cc3C2=O)C(=O)N1` (stereo not drawn) [GS-096, 3-(1-Oxo-6-(7-oxo-7-(4-(pyridin-2-yl)piperazin-1-yl)heptyl)isoindolin-2-yl)piperidine-2,6-dione], the IC50 in the assay with MV4;11 cells (setting [5]) is 10 to 100 nM; in the assay on MV4;11 cells (setting [6]), less than 10 nM; with MOLM-13 cells (setting [7]), 100 to 1000 nM; in the assay with MOLM-13 cells (setting [8]), less than 10 nM.

On to `O=C1CCC(N2Cc3ccc(CCCCCCC(=O)N4CCC(n5cc(-c6cnc7ccccc7n6)cn5)CC4)cc3C2=O)C(=O)N1` (stereo not drawn) [GS-097, 3-(1-Oxo-6-(7-oxo-7-(4-(4-(quinoxalin-2-yl)-1H-pyrazol-1-yl)piperidin-1-yl)heptyl)isoindolin-2-yl)piperidine-2,6-dione], for which the IC50 in the assay on MV4;11 cells (setting [1]) is 10 to 100 nM; with MV4;11 cells (setting [2]) it was less than 10 nM; in the assay with MOLM-13 cells (setting [3]), 10 to 100 nM; in the assay on MOLM-13 cells (setting [4]) it was less than 10 nM.

Turning to `O=C1CCC(N2Cc3ccc(CCCCCCC(=O)N4CCC(n5cc(-c6ccc7ccccc7n6)cn5)CC4)cc3C2=O)C(=O)N1` (stereo not drawn) [GS-098, 3-(1-Oxo-6-(7-oxo-7-(4-(4-(quinolin-2-yl)-1H-pyrazol-1-yl)piperidin-1-yl)heptyl)isoindolin-2-yl)piperidine-2,6-dione], the IC50 is 10 to 100 nM in the assay with MV4;11 cells (setting [1]), 10 to 100 nM in the assay on MV4;11 cells (setting [2]), 100 to 1000 nM in the assay on MOLM-13 cells (setting [3]) and less than 10 nM in the assay on MOLM-13 cells (setting [4]).

For `O=C1CCC(N2Cc3ccc(CCCCCCC(=O)N4CCC(c5ccccc5)CC4)cc3C2=O)C(=O)N1` (stereo not drawn) [GS-099, 3-(1-Oxo-6-(7-oxo-7-(4-phenylpiperidin-1-yl)heptyl)isoindolin-2-yl)piperidine-2,6-dione], the IC50 lay within 100 to 1000 nM in the assay on MV4;11 cells (setting [5]), 10 to 100 nM with MV4;11 cells (setting [6]), 100 to 1000 nM with MOLM-13 cells (setting [7]) and 10 to 100 nM in the assay with MOLM-13 cells (setting [8]).

Consider `O=C1CCC(N2C(=O)c3ccc(NCCC4CCC(n5cc(-c6cnc7ccccc7n6)cn5)CC4)cc3C2=O)C(=O)N1` (stereo not drawn) [GS-100, 2-(2,6-Dioxopiperidin-3-yl)-5-((2-(4-(4-(quinoxalin-2-yl)-1H-pyrazol-1-yl)cyclohexyl)ethyl)amino)isoindoline-1,3-dione], for which the IC50 was greater than 1000 nM in the assay with MV4;11 cells (setting [1]), greater than 1000 nM in the assay on MV4;11 cells (setting [2]), greater than 1000 nM in the assay with MOLM-13 cells (setting [3]) and 100 to 1000 nM in the assay on MOLM-13 cells (setting [4]).
